Non-standard residues stand in square brackets, D forms with d. Residues, ends and D or L forms follow the SMILES beside them.
Key:
[1] = target: T1, α-chymotrypsin (CHT) (Bos taurus, UniProt P00766); assay: Enzymatic degradation kinetics with α-chymotrypsin; format: in vitro ADME; conditions: CHT 0.36 mg/mL mixed, final DAL 0.50 mg/mL, 0.4 M PB, 37 ℃, 80 rpm, HPLC, mean ± SD of three independent experiments
T1 construct: purchased Merk (Merck/Sigma-Aldrich, St. Louis, MO, USA)
Description: (§1) Stock 1 mg/mL solutions of DAL-NP or free DAL in filtered 0.4 M PB were used for the enzymatic digestion tests. The solutions were mixed with 0.36 mg/mL CHT or 0.18 mg/mL PAC to obtain solutions with a final DAL concentration of 0.50 mg/mL. The DAL-NP and free DAL samples were subjected to digestion in the presence of CHT or PAC at 37 ℃ in a shaker water bath (80 rpm). At pre-established intervals, samples were withdrawn, appropriately diluted with the mobile phase (4 ℃), and analyzed in triplicate for DAL by HPLC, as described previously. The analysis was repeated in triplicate.

[2] = test system: pancreatin (PAC); assay: Enzymatic degradation kinetics with pancreatin; format: in vitro ADME; conditions: PAC 0.18 mg/mL mixed, final DAL 0.50 mg/mL, 0.4 M PB, 37 ℃, HPLC
Description: as §1

[3] = Cytotoxicity by WST-1 assay, Caco-2; format: cell-based; conditions: human, WST-1, DAL 17–150 µg/mL, HBSS pH 6.8, three independent experiments, read-out: cell vitality, Caco-2, over the whole concentration range
Description: To study the cytotoxicity of the DAL/N^+-Ch-CD complex, we mixed 400 µL of polymer solution (3.175 mg/mL) and 380 µL of 1 mg/mL aqueous DAL, and the mix was lyophilized under the conditions described above. The DAL-NP were lyophilized and the lyophilized product was re-suspended in 250 µL of 0.22 µm filtered water. An aliquot of dispersion (200 µL) was withdrawn and added to 20 µL of Hank’s buffer solution 10× (HBSS 37 ℃, pH 6.8), and the mix was made to 2 mL with HBSS 1X as to have a DAL content of […]. The Caco-2 cells were subjected to DAL concentrations in the 17–150 µg/mL range, while the bEnd.3 cells were brought into contact with DAL concentrations in the 17–100 µg/mL range; more specifically, DAL was free in solution, contained in the DAL/N^+-rCh-CD (1:1) complex, or encapsulated in NP. The cytotoxicity of the compounds under study was evaluated by the WST-1 assay. Caco-2 and bEnd.3 cells were seeded in each well of 96-well plates at a seeding density of 2 × 10^4 cells per well, and left to proliferate for 24 h at 37 ℃ in 5% CO2. The culture medium was then removed and replaced with samples of DAL, DAL/N^+-Ch-CD complex, and DAL-NP, as previously described. Afterwards, formazan dye absorbance was quantified at 450 nm with the reference wavelength of 655 by using an Enspire 230 (Perkin-Elmer, Waltham, MA, USA) multilabel reader.

[4] = test system: Caco-2 monolayer; assay: Permeation across Caco-2 monolayer (Transwell); format: in vitro ADME; conditions: Caco-2 monolayer 24 days, A-B, apical DAL 150 µg/mL, up to 3 h, HPLC, NP as FITC-labeled DAL-NP
Description: The permeation studies were performed as described previously. Briefly, a Caco-2 monolayer was obtained by cell seeding (10^5 cells per well) on Transwell 12-well plates (pore size […], area 1.12 cm^2; Sigma-Aldrich, Saint Louis, MO, USA). Thereafter, 0.5 and 1.5 mL of culture medium were added to apical and basolateral compartments of the inserts, respectively; the culture medium was replaced every 2 days for 24 days. The transepithelial electrical resistance (TEER, Ω cm^2) measurement during the permeatstudies was carried out using a voltmeter with rod electrodes (Voltmeter Millicells-ERS, Millipore, Molsheim, France). The TEER values for the Caco-2 cell monolayer grown on the Transwell filter were ion taken at time 0, every hour for 3 h, and at 24 h.
Both the NP vehicle and the DAL were followed in the mucosal and basolateral phases. […] The withdrawn samples were kept in ice and analyzed by HPLC. The evaluation of DAL contained in NP-FITC by HPLC implied subtracting the contribution of the fluorescein-labeled polymer from the peptide peak area. Therefore, with each sample to be analyzed, a specific fluorescence intensity was recorded by a spectrofluorometer from which the fluorescent polymer concentration to be injected in the HPLC apparatus could be extrapolated. […]

[5] = test system: bEnd.3 monolayer; assay: Permeation across bEnd.3 monolayer (Transwell, BBB model); format: in vitro ADME, murine
Description: The medium was changed every 2 days.

[6] = test system: bEnd.3 monolayers
Description: The bEnd.3 cells, at a concentration of 5 × 10^4 cells per well, were seeded on 12-well Transwell plates with polyester filters with 0.4 µm membrane pores and incubated 10 days at 37 ℃ in a 5% CO2 atmosphere. One and a half milliliters of full medium was added to the basal chamber, while a volume of 0.5 mL, including the cells, was added to the apical chamber. The medium was changed every 2 days. After 6 days culture, the medium of the basolateral chamber was replaced by serum-free medium and the cells were cultured for 4 more days before the permeation experiment. To evaluate the confluence of the cell monolayer, and during the permeation studies, we measured the TEER at time 0 and at each hour for 3 h, and then at 24 h, as previously described. […] At 1 h intervals up to 3 h, the runs were interrupted and 500 µL was collected from the apical chamber and 1.5 mL from the basolateral chamber. Permeation of DAL and FITC-labeled vehicle into the basolateral chamber as well as DAL and FITC-labeled vehicle concentrations in the apical chamber were measured as described above.

| Papp, NaF 50 μg/mL [6] | Papp, NaF 100 μg/mL [6] | Compound | reduction of substrate (DAL) after 5 min with CHT [1] | reduction of initial DAL content 2 min after adding PAC ([2]; 80 rpm, 2 min, three independent experiments) | DAL present after 5 min with PAC ([2]; 5 min) | viability [3] | DAL presence in basolateral chamber, Caco-2 [4] | TEER of bEnd.3 monolayer during permeation experiment ([5]; 100% corresponds to 180 Ω cm^2, initial apical DAL 25 µg/mL, 3 h) | DAL presence in basolateral chamber, bEnd.3 ([5]; bEnd.3 monolayer 10 days, Transwell, A-B, apical DAL 25 µg/mL, up to 3 h, HPLC, NP as FITC-labeled DAL-NP) |
| --- | --- | --- | --- | --- | --- | --- | --- | --- | --- |
|  |  | CC(C)C[C@H](NC(=O)[C@H](Cc1ccccc1)NC(=O)CNC(=O)[C@@H](C)NC(=O)[C@@H](N)Cc1ccc(O)cc1)C(=O)N[C@@H](CCCNC(=N)N)C(=O)O [DAL, (D-Ala2)-Leu Enkephalin-Arg] (H-Y[dA]GFLR-OH) | 90 ± 0.41% | 85 ± 1.39% | no peptide was present | > 70% | could never be evidenced | 100% | below the analytical limit |
| 0.51 10-6 cm/sec | 0.52 10-6 cm/sec | O=C1OC2(c3ccc(O)cc3Oc3cc(O)ccc32)c2ccccc21 [NaF, Sodium fluorescein] |  |  |  |  |  |  |  |
